From BindingDB's records for doi:10.1016/s0014-2999(03)02008-9 (Harvard University, 2003)

Experiments:
D(2) dopamine receptor = D(2) dopamine receptor (Rattus norvegicus, UniProt P61169)
D(1A) dopamine receptor = D(1A) dopamine receptor (Rattus norvegicus, UniProt P18901)
D(1B) dopamine receptor = D(1B) dopamine receptor (Homo sapiens, UniProt P21918)
[1] = target: T1, Alpha-2C adrenergic receptor (Rattus norvegicus, UniProt P22086)
T1 sequence (P22086 whole entry): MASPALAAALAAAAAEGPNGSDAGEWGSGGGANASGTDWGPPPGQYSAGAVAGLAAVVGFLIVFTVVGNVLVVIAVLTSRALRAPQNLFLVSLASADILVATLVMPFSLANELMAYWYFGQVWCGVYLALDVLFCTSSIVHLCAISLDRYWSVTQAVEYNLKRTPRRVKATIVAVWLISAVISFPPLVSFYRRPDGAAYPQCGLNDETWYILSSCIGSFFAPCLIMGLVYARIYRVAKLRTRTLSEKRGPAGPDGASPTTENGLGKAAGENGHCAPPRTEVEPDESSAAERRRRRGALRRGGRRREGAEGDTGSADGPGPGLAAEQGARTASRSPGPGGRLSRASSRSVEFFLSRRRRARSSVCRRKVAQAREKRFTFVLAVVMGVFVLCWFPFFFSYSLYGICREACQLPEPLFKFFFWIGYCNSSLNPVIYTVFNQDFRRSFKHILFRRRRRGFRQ

[2] = target: 5-hydroxytryptamine receptor 2A (Rattus norvegicus, UniProt P14842)
[3] = target: T2, Solute carrier family 22 member 2 (Rattus norvegicus, UniProt Q9R0W2)
T2 sequence (Q9R0W2 whole entry): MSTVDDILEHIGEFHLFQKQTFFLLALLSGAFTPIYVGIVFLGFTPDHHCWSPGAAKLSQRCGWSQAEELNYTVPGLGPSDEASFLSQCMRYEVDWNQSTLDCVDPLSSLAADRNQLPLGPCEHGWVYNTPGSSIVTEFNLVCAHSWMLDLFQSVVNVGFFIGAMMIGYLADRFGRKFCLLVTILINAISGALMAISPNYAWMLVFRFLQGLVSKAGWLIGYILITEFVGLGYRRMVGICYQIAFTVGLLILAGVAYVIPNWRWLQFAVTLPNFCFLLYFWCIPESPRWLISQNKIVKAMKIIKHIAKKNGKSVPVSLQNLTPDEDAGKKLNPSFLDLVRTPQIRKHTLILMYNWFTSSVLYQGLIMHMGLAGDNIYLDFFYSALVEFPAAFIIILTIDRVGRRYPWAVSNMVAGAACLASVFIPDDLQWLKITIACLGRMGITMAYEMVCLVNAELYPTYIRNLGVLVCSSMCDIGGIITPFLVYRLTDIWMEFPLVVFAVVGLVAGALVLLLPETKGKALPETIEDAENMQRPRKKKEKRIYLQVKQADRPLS

Chain of 5-hydroxytryptamine receptor 2A (P14842 whole entry): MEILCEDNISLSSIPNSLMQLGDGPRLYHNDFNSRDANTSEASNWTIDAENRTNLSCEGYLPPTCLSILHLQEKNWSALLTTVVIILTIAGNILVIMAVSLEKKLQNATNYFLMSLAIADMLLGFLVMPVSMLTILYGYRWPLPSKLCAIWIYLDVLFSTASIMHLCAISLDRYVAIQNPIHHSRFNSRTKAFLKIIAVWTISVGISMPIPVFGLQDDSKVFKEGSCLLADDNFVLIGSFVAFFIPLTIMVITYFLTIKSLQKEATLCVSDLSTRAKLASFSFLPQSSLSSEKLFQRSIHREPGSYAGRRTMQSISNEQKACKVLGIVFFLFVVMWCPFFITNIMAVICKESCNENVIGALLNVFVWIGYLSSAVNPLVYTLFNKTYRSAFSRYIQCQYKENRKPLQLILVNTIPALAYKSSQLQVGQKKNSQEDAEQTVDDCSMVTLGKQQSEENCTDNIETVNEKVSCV
Chain of D(2) dopamine receptor (P61169 whole entry): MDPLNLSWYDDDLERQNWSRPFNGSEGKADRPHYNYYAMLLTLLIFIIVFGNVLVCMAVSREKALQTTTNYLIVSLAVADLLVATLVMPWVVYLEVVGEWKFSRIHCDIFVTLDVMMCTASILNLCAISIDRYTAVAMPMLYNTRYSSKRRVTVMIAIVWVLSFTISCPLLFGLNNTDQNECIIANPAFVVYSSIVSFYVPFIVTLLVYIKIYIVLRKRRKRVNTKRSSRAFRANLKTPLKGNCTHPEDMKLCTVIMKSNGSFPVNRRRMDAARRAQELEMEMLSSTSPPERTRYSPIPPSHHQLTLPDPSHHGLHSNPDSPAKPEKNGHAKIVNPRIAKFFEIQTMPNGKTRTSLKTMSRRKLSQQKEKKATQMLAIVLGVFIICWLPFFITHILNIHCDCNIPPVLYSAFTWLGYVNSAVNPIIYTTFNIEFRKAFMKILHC
Chain of D(1A) dopamine receptor (P18901 whole entry): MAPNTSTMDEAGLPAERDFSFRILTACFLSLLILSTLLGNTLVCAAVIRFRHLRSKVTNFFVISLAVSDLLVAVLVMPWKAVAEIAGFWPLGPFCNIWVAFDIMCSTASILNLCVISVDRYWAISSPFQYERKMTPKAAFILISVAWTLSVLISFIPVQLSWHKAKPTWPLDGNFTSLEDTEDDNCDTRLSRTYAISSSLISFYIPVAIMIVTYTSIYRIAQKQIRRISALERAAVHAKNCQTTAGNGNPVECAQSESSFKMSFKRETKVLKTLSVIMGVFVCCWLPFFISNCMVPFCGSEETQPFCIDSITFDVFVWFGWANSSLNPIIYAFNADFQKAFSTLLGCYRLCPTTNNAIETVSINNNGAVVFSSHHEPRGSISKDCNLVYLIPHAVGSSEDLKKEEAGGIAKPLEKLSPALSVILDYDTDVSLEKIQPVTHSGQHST
Chain of D(1B) dopamine receptor (P21918 whole entry): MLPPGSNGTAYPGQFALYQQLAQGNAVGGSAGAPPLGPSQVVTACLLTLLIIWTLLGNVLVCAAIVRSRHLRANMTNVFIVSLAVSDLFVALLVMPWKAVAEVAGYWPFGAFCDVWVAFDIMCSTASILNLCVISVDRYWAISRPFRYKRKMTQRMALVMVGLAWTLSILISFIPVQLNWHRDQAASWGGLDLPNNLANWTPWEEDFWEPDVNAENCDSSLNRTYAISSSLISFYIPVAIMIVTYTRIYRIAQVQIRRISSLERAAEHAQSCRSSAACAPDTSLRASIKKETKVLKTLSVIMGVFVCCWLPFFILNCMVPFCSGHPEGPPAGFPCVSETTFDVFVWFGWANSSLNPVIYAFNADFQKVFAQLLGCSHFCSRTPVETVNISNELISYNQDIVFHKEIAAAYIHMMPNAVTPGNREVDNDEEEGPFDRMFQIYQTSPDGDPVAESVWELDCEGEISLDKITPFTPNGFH

Structure (SMILES)	Ki (D(2) dopamine receptor) [nM]	Ki (D(1A) dopamine receptor) [nM]	Ki (D(1B) dopamine receptor) [nM]	Ki [1] [nM]	Ki [2] [nM]	Ki [3] [nM]
Cc1ccccc1C1CN(C)CCc2c1cc(O)c(O)c2Br (stereo not drawn) [MCL-214]	409	1.1	3.42	186	45.8	–
Oc1cc2c(c(Br)c1O)CCNC[C@H]2c1cccc(C(F)(F)F)c1 [MCL-218]	> 10000	1240	–	776	992	–
C=CCN1CCc2c(cc(O)c(O)c2Br)C(c2cccc(C)c2)C1 (stereo not drawn) [MCL-204]	83.8	0.11	12	709	598	–
C=CCN1CCc2c(cc(O)c(O)c2Cl)C(c2cccc(C)c2)C1 (stereo not drawn) [MCL-210]	119	0.52	9.94	877	995	–
Cc1cccc([C@@H]2CN(C)CCc3c(Cl)cc(O)cc32)c1 [MCL-230A]	–	> 10000	–	–	–	–
Oc1cc2c(c(Cl)c1O)CCNCC2c1ccccc1 (stereo not drawn) [NSC_1218]	–	–	–	509	995	–
Cc1ccc(C2CN(C)CCc3c2cc(O)c(O)c3Cl)cc1 (stereo not drawn) [MCL-206]	362	1.93	3.96	250	147	–
Cc1cccc(C2CNCCc3c2cc(O)c(O)c3Br)c1 (stereo not drawn) [MCL-205]	1070	4.41	13.7	338	1300	–
C=CCN1CCc2c(cc(O)c(O)c2Br)C(c2ccccc2C(F)(F)F)C1 (stereo not drawn) [MCL-217]	> 10000	> 10000	–	> 10000	> 10000	–
CN1CCc2cc(Cl)c(O)cc2C(c2ccccc2)C1 (stereo not drawn) [NSC_5018]	–	–	–	208	10.8	–
C=CCN1CCc2cc(O)c(O)cc2C(c2ccccc2)C1 (stereo not drawn)	–	–	–	632	3000	–
Cc1cccc(C2CNCCc3c2cc(O)c(O)c3Cl)c1 (stereo not drawn) [MCL-209]	5000	0.6	0.88	240	1200	–
Cc1ccc(C2CN(C)CCc3c2cc(O)c(O)c3Br)cc1 (stereo not drawn) [MCL-212]	1030	19.3	4.36	493	124	–
Cc1cccc([C@H]2CN(C)CCc3c2cc(O)c(O)c3Cl)c1	920	1.18	7.56	295	266	–
Cc1cccc([C@H]2CN(C)CCc3c2cc(O)c(O)c3Cl)c1 [MCL-201]	2140	21.3	–	632	–	–
C=CCN1CCc2c(cc(O)c(O)c2Cl)C(c2ccccc2)C1 (racemic) [SKF 82958]	–	–	–	558	1610	–
Cc1ccccc1C1CNCCc2c1cc(O)c(O)c2Br (stereo not drawn) [MCL-216]	19.5	1.81	1.95	133	398	–
Cc1cccc([C@@H]2CN(C)CCc3c2cc(O)c(O)c3Br)c1 [MCL-203]	440	0.19	2.47	461	224	–
C=CCN1CCc2c(cc(O)c(O)c2Br)C(c2ccccc2C)C1 (stereo not drawn) [MCL-215]	239	37.1	–	414	742	–
Cc1ccccc1C1CN(C)CCc2c1cc(O)c(O)c2Cl (stereo not drawn) [NSC_0]	–	0.46	2.32	66.6	70.6	–
Oc1cc2c(cc1O)C(c1ccccc1)CNCC2 (racemic) [(+/-)-SKF-38393]	–	–	–	248	> 10000	–
CN1CCc2c(cc(O)c(O)c2Br)[C@H](c2cccc(C(F)(F)F)c2)C1 [MCL-211]	1050	8.66	–	365	68.9	–
Cc1cccc([C@@H]2CN(C)CCc3c2cc(O)c(O)c3Cl)c1 [MCL-202]	515	0.49	1.53	–	88.6	3000
C=CCN1CCc2c(cc(O)c(O)c2Br)C(c2ccc(C)cc2)C1 (stereo not drawn) [MCL-213]	1700	128	–	1090	977	–
